Results: PubChem BioAssay (NCI)
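Values below derive from 48-hour exposures of cells grown in 96-well plates, with endpoints linearly interpolated between the two concentrations bracketing the appropriate inhibition level. Abbreviation: GI50, concentration required for 50% inhibition of growth. TGI: total growth inhibition.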

Tests used:
Test in all cases: NCI tumour cell line growth inhibition, 48 h
A498 renal = test system: A498 renal
CAKI-1 renal = test system: CAKI-1 renal
HCT-15 colon = test system: HCT-15 colon
KM12 colon = test system: KM12 colon
NCI-H226 lung = test system: NCI-H226 lung
SK-MEL-2 melanoma = test system: SK-MEL-2 melanoma
SNB-75 CNS = test system: SNB-75 CNS
NCI/ADR-RES ovarian = test system: NCI/ADR-RES ovarian
PC-3 prostate = test system: PC-3 prostate
SNB-19 CNS = test system: SNB-19 CNS

CC(=O)[C@H]1CCC2[C@@H]3CC=C4C[C@@H]([O-])CC[C@]4(C)C3CC[C@@]21C.CC(=O)[C@H]1CCC2[C@@H]3CC=C4C[C@@H]([O-])CC[C@]4(C)C3CC[C@@]21C.CC(=O)[CH-]C(=O)c1ccccc1.CC(=O)[CH-]C(=O)c1ccccc1.Cl.[Ti+4] (stereo partly specified)
GI50 (A498 renal): 12.8 µM
TGI (A498 renal): 27 µM
GI50 (CAKI-1 renal): 19 µM
TGI (CAKI-1 renal): 97.3 µM
GI50 (HCT-15 colon): 17.6 µM
TGI (HCT-15 colon): > 100 µM
GI50 (KM12 colon): 26.4 µM
TGI (KM12 colon): > 100 µM
GI50 (NCI-H226 lung): 16.1 µM
TGI (NCI-H226 lung): 44.9 µM
GI50 (SK-MEL-2 melanoma): 14.7 µM
TGI (SK-MEL-2 melanoma): 31 µM
GI50 (SNB-75 CNS): 24.4 µM
TGI (SNB-75 CNS): 66.2 µM

COc1cccc(Nc2nc3ccccc3c3occc23)c1
GI50 (CAKI-1 renal): 4.19 µM
TGI (CAKI-1 renal): 15.6 µM
GI50 (HCT-15 colon): 13.2 µM
TGI (HCT-15 colon): > 100 µM
GI50 (KM12 colon): 3.13 µM
TGI (KM12 colon): 10.7 µM
GI50 (NCI/ADR-RES ovarian): 17.9 µM
TGI (NCI/ADR-RES ovarian): 32.1 µM
GI50 (PC-3 prostate): 13.8 µM
TGI (PC-3 prostate): 34.3 µM
GI50 (SK-MEL-2 melanoma): 13 µM
TGI (SK-MEL-2 melanoma): 30.6 µM
GI50 (SNB-19 CNS): 12.9 µM
TGI (SNB-19 CNS): 25.8 µM

N/N=C(/Cc1nc2ccc(C(=O)c3ccccc3)cc2[nH]c1=O)C(=O)Nc1ccc([N+](=O)[O-])cc1[N+](=O)[O-]
GI50 (A498 renal): > 100 µM
TGI (A498 renal): > 100 µM
TGI (CAKI-1 renal): > 100 µM
GI50 (HCT-15 colon): > 100 µM
TGI (HCT-15 colon): > 100 µM
TGI (KM12 colon): > 100 µM
GI50 (NCI-H226 lung): > 100 µM
TGI (NCI-H226 lung): > 100 µM
GI50 (SK-MEL-2 melanoma): > 100 µM
TGI (SK-MEL-2 melanoma): > 100 µM
TGI (SNB-19 CNS): > 100 µM

COc1ccc(/C=C2/SC(Nc3nc(-c4nc(NC5=NC(=O)/C(=C\c6ccc(OC)cc6)S5)sc4C)c(C)s3)=NC2=O)cc1
GI50 (A498 renal): 0.806 µM
TGI (A498 renal): 4.22 µM
GI50 (CAKI-1 renal): 0.368 µM
TGI (CAKI-1 renal): 3.16 µM
GI50 (HCT-15 colon): 0.397 µM
TGI (HCT-15 colon): 7.82 µM
GI50 (KM12 colon): 0.196 µM
TGI (KM12 colon): 5.77 µM
GI50 (NCI-H226 lung): 4.98 µM
TGI (NCI-H226 lung): 24.9 µM
GI50 (NCI/ADR-RES ovarian): 0.648 µM
TGI (NCI/ADR-RES ovarian): 4.39 µM
GI50 (PC-3 prostate): 0.787 µM
TGI (PC-3 prostate): 9.95 µM
GI50 (SK-MEL-2 melanoma): 15.2 µM
TGI (SK-MEL-2 melanoma): > 50 µM
GI50 (SNB-19 CNS): 5.81 µM
TGI (SNB-19 CNS): > 50 µM

CC1NC(=O)C2=C1C(=O)NC(=O)C2 (stereo unspecified)
GI50 (A498 renal): > 100 µM
TGI (A498 renal): > 100 µM
GI50 (CAKI-1 renal): > 100 µM
TGI (CAKI-1 renal): > 100 µM
GI50 (HCT-15 colon): > 100 µM
TGI (HCT-15 colon): > 100 µM
GI50 (KM12 colon): > 100 µM
TGI (KM12 colon): > 100 µM
GI50 (NCI-H226 lung): > 100 µM
TGI (NCI-H226 lung): > 100 µM
GI50 (NCI/ADR-RES ovarian): > 100 µM
TGI (NCI/ADR-RES ovarian): > 100 µM
GI50 (PC-3 prostate): > 100 µM
TGI (PC-3 prostate): > 100 µM
GI50 (SK-MEL-2 melanoma): > 100 µM
TGI (SK-MEL-2 melanoma): > 100 µM

Clc1cccc(C2N3CCCCC3[C@@H]3c4[nH]c5ccccc5c4CCN23)c1 (stereo partly specified)
TGI (A498 renal): 77.3 µM
TGI (CAKI-1 renal): > 100 µM
TGI (HCT-15 colon): > 100 µM
TGI (SK-MEL-2 melanoma): 40.1 µM
TGI (SNB-19 CNS): > 100 µM
TGI (SNB-75 CNS): 85.4 µM

Cc1cn(Cc2ccc(C34CC5CC(CC(C5)C3)C4)c(O)c2)c(=O)[nH]c1=O
GI50 (A498 renal): 4.33 µM
TGI (A498 renal): 17.8 µM
GI50 (CAKI-1 renal): 10.1 µM
TGI (CAKI-1 renal): 23.3 µM
GI50 (HCT-15 colon): 7.99 µM
TGI (HCT-15 colon): 20.5 µM
GI50 (KM12 colon): 11.4 µM
TGI (KM12 colon): 26.2 µM
GI50 (NCI-H226 lung): 15.4 µM
TGI (NCI-H226 lung): 29.9 µM
GI50 (NCI/ADR-RES ovarian): 11.3 µM
TGI (NCI/ADR-RES ovarian): 27.2 µM
GI50 (SK-MEL-2 melanoma): 14.1 µM
TGI (SK-MEL-2 melanoma): 32.2 µM
GI50 (SNB-19 CNS): 13.9 µM
TGI (SNB-19 CNS): 31.1 µM
GI50 (SNB-75 CNS): 11.2 µM
TGI (SNB-75 CNS): 29.6 µM

CC1=CC(C)(C)NN1C1=NS(=O)(=O)c2ccccc2N1C
TGI (A498 renal): > 100 µM
TGI (CAKI-1 renal): > 100 µM
TGI (HCT-15 colon): > 100 µM
TGI (KM12 colon): > 100 µM
TGI (NCI-H226 lung): > 100 µM
TGI (NCI/ADR-RES ovarian): > 100 µM
TGI (PC-3 prostate): > 100 µM
TGI (SK-MEL-2 melanoma): > 100 µM
TGI (SNB-19 CNS): > 100 µM

Cc1nc2c(o1)C(=Nc1ccccc1)c1nc(C)oc1C2=Nc1ccccc1
TGI (A498 renal): 3.01 µM
TGI (HCT-15 colon): > 100 µM
TGI (NCI-H226 lung): 53.6 µM
TGI (SK-MEL-2 melanoma): 72.6 µM
TGI (SNB-19 CNS): 42.5 µM
TGI (SNB-75 CNS): 28.6 µM

CN(/N=C/c1ccnc2ccccc12)c1c([N+](=O)[O-])cc([N+](=O)[O-])cc1[N+](=O)[O-]
TGI (A498 renal): > 100 µM
TGI (CAKI-1 renal): > 100 µM
TGI (HCT-15 colon): > 100 µM
TGI (KM12 colon): > 100 µM
TGI (NCI-H226 lung): > 100 µM
TGI (SK-MEL-2 melanoma): 89.1 µM
TGI (SNB-19 CNS): > 100 µM
TGI (SNB-75 CNS): > 100 µM

O=C(/C=C/c1cccc([N+](=O)[O-])c1)c1ccc([N+](=O)[O-])cc1
TGI (A498 renal): > 100 µM
TGI (CAKI-1 renal): > 100 µM
TGI (HCT-15 colon): > 100 µM
TGI (KM12 colon): > 100 µM
TGI (NCI-H226 lung): > 100 µM
TGI (SK-MEL-2 melanoma): > 100 µM
TGI (SNB-19 CNS): > 100 µM
TGI (SNB-75 CNS): > 100 µM

COC(=O)C1C(=O)O[C@@H](c2cc(OC)c(OC)cc2OC)C1C(=O)OC (mixture of isomers)
TGI (A498 renal): > 100 µM
TGI (CAKI-1 renal): > 100 µM
TGI (HCT-15 colon): > 100 µM
TGI (KM12 colon): > 100 µM
TGI (NCI-H226 lung): > 100 µM
TGI (SNB-19 CNS): > 100 µM
TGI (SNB-75 CNS): > 100 µM

COc1ccc(S(=O)(=O)N(CC(=O)O)c2ccccc2)cc1
TGI (A498 renal): > 100 µM
TGI (CAKI-1 renal): > 100 µM
TGI (HCT-15 colon): > 100 µM
TGI (KM12 colon): > 100 µM
TGI (SK-MEL-2 melanoma): > 100 µM
TGI (SNB-19 CNS): > 100 µM
TGI (SNB-75 CNS): > 100 µM

C=CCC(N[C@@H](CO)c1ccccc1)c1cn(C(=O)OCC)c2ccccc12 (stereo partly specified)
GI50 (A498 renal): 25.9 µM
TGI (A498 renal): 61.6 µM
GI50 (CAKI-1 renal): 13.6 µM
TGI (CAKI-1 renal): 53.5 µM
GI50 (HCT-15 colon): 18.9 µM
TGI (HCT-15 colon): 40.8 µM
GI50 (KM12 colon): 15.2 µM
TGI (KM12 colon): 33.6 µM
GI50 (NCI-H226 lung): 23.1 µM
TGI (NCI-H226 lung): 48.7 µM
GI50 (NCI/ADR-RES ovarian): 18.9 µM
TGI (NCI/ADR-RES ovarian): 55.5 µM
GI50 (PC-3 prostate): 22.3 µM
TGI (PC-3 prostate): > 100 µM
GI50 (SK-MEL-2 melanoma): 33.7 µM
TGI (SK-MEL-2 melanoma): > 100 µM

Clc1cccc(-c2nnc(-c3nn(-c4ccccc4)c4nc5ccccc5nc34)o2)c1
TGI (CAKI-1 renal): > 100 µM
TGI (HCT-15 colon): > 100 µM
TGI (KM12 colon): > 100 µM
TGI (NCI-H226 lung): > 100 µM
TGI (SK-MEL-2 melanoma): > 100 µM
TGI (SNB-19 CNS): > 100 µM
TGI (SNB-75 CNS): > 100 µM

COC(=O)C1=CC2C=CC(C1C(=O)OC)C1C(C(=O)OC)=C(C(=O)OC)C(C(=O)OC)=C(C(=O)OC)C21OC (stereo unspecified)
TGI (A498 renal): > 100 µM
TGI (CAKI-1 renal): > 100 µM
TGI (HCT-15 colon): > 100 µM
TGI (NCI-H226 lung): > 100 µM
TGI (SK-MEL-2 melanoma): > 100 µM
TGI (SNB-75 CNS): > 100 µM

CC(=O)[CH-]C(=O)c1ccccc1.CC(=O)[CH-]C(=O)c1ccccc1.O=S(=O)([O-])c1cc([O-])c2c([O-])cc(S(=O)(=O)[O-])cc2c1.[Na+].[Zr+4]
GI50 (A498 renal): > 100 µM
TGI (A498 renal): > 100 µM
GI50 (CAKI-1 renal): 60 µM
TGI (CAKI-1 renal): > 100 µM
GI50 (HCT-15 colon): > 100 µM
TGI (HCT-15 colon): > 100 µM
GI50 (KM12 colon): > 100 µM
TGI (KM12 colon): > 100 µM
GI50 (NCI-H226 lung): 30.4 µM
TGI (NCI-H226 lung): 90.9 µM
GI50 (SK-MEL-2 melanoma): > 100 µM
TGI (SK-MEL-2 melanoma): > 100 µM
GI50 (SNB-19 CNS): 35.3 µM
TGI (SNB-19 CNS): > 100 µM
GI50 (SNB-75 CNS): 49 µM
TGI (SNB-75 CNS): > 100 µM

CCNC(=O)OCc1c(COC(=O)NCC)c(-c2ccc(Cl)c(Cl)c2)n2c1CCC2
TGI (CAKI-1 renal): 14.6 µM
TGI (HCT-15 colon): 36.9 µM
TGI (KM12 colon): 59 µM
TGI (NCI-H226 lung): 7.85 µM
TGI (SK-MEL-2 melanoma): 28.1 µM
TGI (SNB-19 CNS): 68.1 µM
TGI (SNB-75 CNS): 27.7 µM

O=c1c(Cl)c(Cl)cnn1CCCl
TGI (A498 renal): 29 µM
TGI (CAKI-1 renal): 6.53 µM
TGI (HCT-15 colon): 6.79 µM
TGI (KM12 colon): 29.7 µM
TGI (NCI-H226 lung): 52.4 µM
TGI (SNB-19 CNS): 16.4 µM
TGI (SNB-75 CNS): 24.1 µM
